“And” between values parts separate entries of the source, which are not always exact repeats. Identical values can stand only once. Like-named read-outs stand apart in the source and are kept apart here. Marks after values point to notes of the source that are not given here. Strand notation (5' to 3'): a small letter for the sugar, then the base; units joined by * are phosphorothioate-linked, units joined directly phosphodiester-linked; [ ] holds rarer units or linkages, { } end groups; capitals alone tell only the bases. [I] = hypoxanthine (inosine); d = 2'-deoxy (DNA)
Experiments:
HIV-1IIIB [1] = system: HIV-1IIIB
[2] = Fraction tetramer by size exclusion chromatography; assay type: physicochemical; settings: Table 16; asterisk = more than one aggregate species
HIV-1 [3] = system: HIV-1
HIV-1 [4] = settings: for inhibition of binding: 5 μM oligonucleotide
gp120 = gp120 (Human immunodeficiency virus type 1 group M subtype B, UniProt P03375); settings: read-out: dissociation constant (Kd); immobilized gp120; FIG. 16
[5] = system: human T-lymphoblastoid CEM cell line
HIV-1IIIB [6] = test: Acute HIV infection assay (XTT, CEM cells); settings: Table 3; for IC50: inhibition of HIV
HSV-1 (KOS) [7] = test: HSV-1 infection ELISA assay; assay type: cell-based, herpes simplex virus
human CD44 = biological target: T1, human CD44 (Homo sapiens, UniProt P16070); test: Immunofluorescent flow cytometry, anti-CD44 mAb; assay type: cell-based
T1 construct: endogenous in cells; host or cells: HeLa cells harboring an HIV-1 env gene
T1 sequence (P16070 21-361 isoform P16070-12 limits assumed): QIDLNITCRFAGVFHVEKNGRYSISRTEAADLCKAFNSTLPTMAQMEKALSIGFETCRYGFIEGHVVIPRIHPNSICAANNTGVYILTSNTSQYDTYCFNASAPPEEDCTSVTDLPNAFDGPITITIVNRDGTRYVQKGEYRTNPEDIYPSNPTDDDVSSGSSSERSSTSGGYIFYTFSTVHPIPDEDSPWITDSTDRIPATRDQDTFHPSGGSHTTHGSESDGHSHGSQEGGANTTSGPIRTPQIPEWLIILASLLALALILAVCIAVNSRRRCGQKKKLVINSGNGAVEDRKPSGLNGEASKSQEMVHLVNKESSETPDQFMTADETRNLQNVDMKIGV

CD4 [8] = biological target: T2, CD4 (Homo sapiens, UniProt P01730); test: Immunofluorescent flow cytometry, anti-CD4 mAb on CEM-T4 cells; assay type: cell-based
[9] = system: chronically infected (H9 IIIB) cell models; test: Chronically infected cell models; assay type: cell-based, human immunodeficiency virus; settings: data not shown
HIV = assay type: cell-based; settings: data not shown
V3 loop region of gp120 = V3 loop region of gp120 (Human immunodeficiency virus type 1 group M subtype B, UniProt P03375)
CD4/gp120 interaction = CD4/gp120 interaction (Human immunodeficiency virus type 1 group M subtype B, UniProt P03375); settings: concentrations 10,000-fold above its IC50; Callahan et al.; cited from earlier work
CD4 [10] = biological target: T2, CD4; assay type: binding
[11] = biological target: T3, human type II phospholipase A2 (Homo sapiens, UniProt P14555); test: Phospholipase A2 assay, 3H-oleic acid labelled E. coli substrate; assay type: biochemical
T3 sequence (P14555 21-144): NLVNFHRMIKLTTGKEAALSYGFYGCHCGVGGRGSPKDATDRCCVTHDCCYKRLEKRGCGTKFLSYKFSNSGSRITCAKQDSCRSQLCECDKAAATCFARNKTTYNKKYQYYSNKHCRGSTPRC

[12] = system: human cytomegalovirus (HCMV); assay type: cell-based
HSV-1 (KOS) [13] = test: HSV-1 virus yield assay; assay type: cell-based, herpes simplex virus; parameters: dose or concentration left out as unconfirmed; settings: compared with Acyclovir
[14] = Table 1, 50% inhibition of HSV replication relative to control infected cells
[15] = Table 12, inosine-substituted oligonucleotides against HSV

For “5677 (DNA dG*dG*dG*dG*dT*dT*dG*dG*dG*dG*dT*dT*dG*dG*dG*dG*dT*dT*dG*dG*dG*dG) [compound 5677]”, the “TI (TC50/IC50)” value (HIV-1IIIB [1]) was 146.
In the case of “TGTGTGTG [ISIS 6071, reference compound]”, the “% tetramer” value [2] is reported as 0%, the IC50 (HIV-1 [3]; Table 16, acute HIV assay) is reported as “inactive” and the inhibition of binding (HIV-1 [4]) is reported as “showed inhibition of binding”.
T2A4T2-biotin showed a Kd (gp120) of ~260 µM.
For “5669 (DNA GGGGTTGGGGTTGGGG; unmodified DNA) [compound 5669]”, the “TI (TC50/IC50)” value (HIV-1IIIB [1]) was 9, the TC50 [5] was 9.6 µM and the IC50 (HIV-1IIIB [6]) was 1.2 µM.
For “5652 (TTGGGGTTGGGGTTGGGGTT; phosphorothioate, further chemistry not given here) [compound 5652]”, the “TI (TC50/IC50)” value (HIV-1IIIB [6]) was 227.
With “5649 (TTGGGGTTGGGGTTGGGGTTGGGG; phosphodiester, further chemistry not given here) [compound 5649]” the EC50 (HSV-1 (KOS) [7]; [14]) was > 3 µM and the “TI (TC50/IC50)” value (HIV-1IIIB [1]) was 300.
With “4721 (CACGGGGTCG; phosphorothioate, further chemistry not given here) [compound 4721]” the “TI (TC50/IC50)” value (HIV-1IIIB [1]) was 546 and the TC50 [5] was 142 µM.
For “TsTsGsGsGsGsTsT [TsTsGsGsGsGsTsT heat denatured]”, the “% tetramer” value [2] was 0%, the IC50 (HIV-1 [3]; Table 16, acute HIV assay) was “inactive” and the inhibition of binding (HIV-1 [4]) was “showed inhibition of binding”.
For ToToGsGsGsGoToT, the “% tetramer” value [2] was 72% and the IC50 (HIV-1 [3]; Table 16, acute HIV assay) was “inactive”.
With TT GGGG [ISIS 5739] the “% tetramer” value [2] was 40* % and the IC50 (HIV-1 [3]; Table 16, acute HIV assay) was 13 µM.
For “5666 (DNA TTGGGGTTGGGGTTGGGG; phosphodiester, further chemistry not given here) [compound 5666]”, the “TI (TC50/IC50)” value (HIV-1IIIB [1]) was 100.
For TT GGGG TT [ISIS 5320], the “effect on binding of antibodies to human CD44” value (human CD44) was “Neither oligonucleotide significantly decreased binding”, the “effect on binding of antibodies to CD4” value (CD4 [8]) was “Neither oligonucleotide significantly decreased binding” and the “effect on chronically infected cells” value [9] was “had no effect”. The “production of intracellular PCR-amplifiable DNA” value (HIV) was “inhibited production of intracellular PCR-amplifiable DNA”, the IC50 (HIV-1 [3]; Table 15, μM of oligonucleotide strand to inhibit 50% of virus-induced cell killing, error ±0.1 μM) was 0.3 µM and the IC50 (HIV-1 [3]; Table 16, acute HIV assay, listed as TsTsGsGsGsGsTsT) was 0.3 µM. The “antiviral activity after heat denaturation of the tetrameric complex” value (HIV-1 [3]; data not shown) was “loss of activity”, the IC50 (HIV-1 [4]; read-out: concentration reducing virus production to 50% of control, tetramer form, infection after 48 hours, data not shown) was ~0.4 µM and the “effect on binding of antisera to gp120” value (V3 loop region of gp120) was “interferes with binding of antisera directed against the V3 loop region of gp120”.
With “5366 (TTGGGGTTGGGGTTGGGGTTGGGGG; phosphorothioate, further chemistry not given here) [compound 5366]” the TC50 [5] was 22 µM and the “TI (TC50/IC50)” value (HIV-1IIIB [6]) was 220.
With “5675 (DNA dT*dT*dG*dG*dG*dG*dT*dT*dG*dG*dG*dG*dT*dT) [compound 5675]” the “TI (TC50/IC50)” value (HIV-1IIIB [1]) was 36 and the TC50 [5] was 14 µM.
With α-ToToGoGoGoGoToT the “% tetramer” value [2] was 97% and the IC50 (HIV-1 [3]; Table 16, acute HIV assay) was “inactive”.
In the case of dextran sulfate, the “effect on gp120/CD4 interaction” value (CD4/gp120 interaction) is listed as “does not prevent the gp120/CD4 interaction”.
With “5668 (DNA TTGGGGTTGGGG; unmodified DNA) [compound 5668]” the TC50 [5] was 5.2 µM and the IC50 (HIV-1IIIB [6]) was > 21 µM.
With “5653 (TTGGGGTTGGGGTTGGGG; phosphorothioate, further chemistry not given here) [compound 5653]” the TC50 [5] was 27 µM and the IC50 (HIV-1IIIB [6]) was 0.19 µM.
With “5650 (TTGGGGTTGGGGTTGGGGTT; phosphodiester, further chemistry not given here) [compound 5650]” the EC50 (HSV-1 (KOS) [7]; [14]) was > 3 µM, the “TI (TC50/IC50)” value (HIV-1IIIB [1]) was 12 and the TC50 [5] was 7.6 µM. The IC50 (HIV-1IIIB [6]) was 0.64 µM.
In the case of TsTsGsGsGsGsTsTsB, the “% tetramer” value [2] is reported as 85%, the Kd (CD4 [10]) is reported as ~25 µM and the IC50 (HIV-1 [3]; Table 16, acute HIV assay) is reported as 0.4 µM.
With “5674 (DNA dT*dT*dG*dG*dG*dG*dT*dT*dG*dG*dG*dG) [compound 5674]” the TC50 [5] was >200 µM.
For “4925 (GTTGGAGACCGGNGTTGGNG; DNA, [I] at 13, 19, backbone not given here) [compound 4925]”, the EC50 (HSV-1 (KOS) [7]; [15]) was 1.6 µM.
For GsGsGsGsT, the “% tetramer” value [2] was 61* % and the IC50 (HIV-1 [3]; Table 16, acute HIV assay) was 1.4 µM.
For TsToGsGoGsGoTsT, the “% tetramer” value [2] was 83% and the IC50 (HIV-1 [3]; Table 16, acute HIV assay) was 5.3 µM.
For TGG GG [ISIS 5544], the “inhibition of enzyme activity” value ([11]; 1 μM) was 50%, the “inhibition of enzyme activity” value ([11]; 3 μM) was “complete inhibition” and the “% tetramer” value [2] was 57* %. The IC50 (HIV-1 [3]; Table 16, acute HIV assay) was “inactive”.
For “5544 (GGGTGGGTATAG; phosphorothioate, further chemistry not given here) [compound 5544]”, the EC50 (HSV-1 (KOS) [7]; [14]) was > 3 µM and the “% Inhibition (1 μM)” value ([11]; Table 5, 1 μM, two separate experiments) was 50%.
In the case of `Nc1nc2c(ncn2COCCO)c(=O)[nH]1` [ACV, 9-(2-hydroxyethoxymethyl) guanine, reference compound], the “activity against HSV-1” value (HSV-1 (KOS) [7]; FIG. 8 and FIG. 9) is reported as “more active than a control oligonucleotide, ISIS 3383”.
For GsGsGsGsTsT, the “% tetramer” value [2] was 94* % and the IC50 (HIV-1 [3]; Table 16, acute HIV assay) was 0.5 µM.
In the case of “5297 (CACGAAAGGCATGACCGNGGC; DNA, [I] at 18, backbone not given here) [compound 5297]”, the EC50 (HSV-1 (KOS) [7]; [15]) is reported as > 3 µM.
For “5590 (GGGGTTGGGG; phosphodiester, further chemistry not given here) [compound 5590]”, the EC50 (HSV-1 (KOS) [7]; [14]) was > 3 µM, the TC50 [5] was 20 µM and the IC50 (HIV-1IIIB [6]) was > 25 µM.
In the case of “5367 (TTGGGGTTGGGGTTGGGGTTGGGGG; phosphodiester, further chemistry not given here) [compound 5367]”, the EC50 (HSV-1 (KOS) [7]; [14]) is reported as > 4 µM, the IC50 [12] is reported as > 2 µM and the TC50 [5] is reported as 52 µM. The “TI (TC50/IC50)” value (HIV-1IIIB [6]) was 400 and the IC50 (HIV-1IIIB [6]) was 0.09 µM and 0.13 µM.
With “5295 (GTTGGAGACCGGGNTTGGGG; DNA, [I] at 14, backbone not given here) [compound 5295]” the EC50 (HSV-1 (KOS) [7]; [15]) was > 3 µM.
With “5676 (DNA dG*dG*dG*dG*dT*dT*dG*dG*dG*dG*dT*dT*dG*dG*dG*dG) [compound 5676]” the “TI (TC50/IC50)” value (HIV-1IIIB [1]) was 114.
With α-TsTsGsGsGsGsTsT the “% tetramer” value [2] was 98% and the IC50 (HIV-1 [3]; Table 16, acute HIV assay) was 0.5 µM.
For “5670 (DNA GGGGTTGGGGTTGGGGTTGGGG; unmodified DNA) [compound 5670]”, the EC50 (HSV-1 (KOS) [7]; [14]) was > 3 µM and the TC50 [5] was 15 µM.
With GG GG [ISIS 4803] the “% tetramer” value [2] was 29* %.
With “5651 (TTGGGGTTGGGGTTGGGGTTGGGG; phosphorothioate, further chemistry not given here) [compound 5651]” the “TI (TC50/IC50)” value (HIV-1IIIB [1]) was 175 and the TC50 [5] was 19, 19 μM.
In the case of “5667 (DNA TTGGGGTTGGGGTT; unmodified DNA) [compound 5667]”, the TC50 [5] is reported as 5.6 µM and the IC50 (HIV-1IIIB [6]) is reported as > 22 µM.
In the case of ToTsGoGsGoGsToT, the “% tetramer” value [2] is reported as 9% and the IC50 (HIV-1 [3]; Table 16, acute HIV assay) is reported as “inactive”.
In the case of TsTsGoGoGoGsTsT, the “% tetramer” value [2] is reported as 80% and the IC50 (HIV-1 [3]; Table 16, acute HIV assay) is reported as 5 µM.
With “TT GGGG TT GGGG TT GGGG TT GGGG (TTGGGGTTGGGGTTGGGGTTGGGG; chemistry not fully specified) [ISIS 5651]” the “antiviral activity, virus yield” value (HSV-1 (KOS) [13]) was “greater antiviral activity than did Acyclovir”.

— patent US20110124715A1, “Antiviral Oligonucleotides Having a Conserved G4 Core Sequence” (priority 1992, published 2011)
